Test results reported in ChEMBL document CHEMBL1201862, “PubChem BioAssay data set” (2004).
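1) Cells in 96-well plates. 2) Compound, 48 h, 5 concentrations. 3) Linear interpolation between surrounding doses. 4) Unreached endpoint = highest concentration. At the GI50, growth is halved.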 Activity calls are given as the source filed them. Cut-off read from the data, not from the text of the source: active = GI50 up to about 1.1 µM and inactive = higher.

Key:
Experiment in all cases: DTP human tumour cell line panel, 48 h
DU-145 = tested on: DU-145
SK-MEL-28 = tested on: SK-MEL-28
OVCAR-5 = tested on: OVCAR-5
Malme-3M = tested on: Malme-3M
786-0 = tested on: 786-0
UO-31 = tested on: UO-31
SK-OV-3 = tested on: SK-OV-3
T47D = tested on: T47D
HCT-15 = tested on: HCT-15
HCT-116 = tested on: HCT-116
LOX IMVI = tested on: LOX IMVI
M14 = tested on: M14
NCI-H522 = tested on: NCI-H522
SNB-19 = tested on: SNB-19
KM12 = tested on: KM12
NCI-H23 = tested on: NCI-H23
OVCAR-3 = tested on: OVCAR-3
COLO 205 = tested on: COLO 205
SF-295 = tested on: SF-295
TK-10 = tested on: TK-10

Structure (SMILES)	GI50 (DU-145)	GI50 (SK-MEL-28)	GI50 (OVCAR-5)	GI50 (Malme-3M)	GI50 (786-0)	GI50 (UO-31)	GI50 (SK-OV-3)	GI50 (T47D)	GI50 (HCT-15)	GI50 (HCT-116)	GI50 (LOX IMVI)	GI50 (M14)	GI50 (NCI-H522)	GI50 (SNB-19)	GI50 (KM12)	GI50 (NCI-H23)	GI50 (OVCAR-3)	GI50 (COLO 205)	GI50 (SF-295)	GI50 (TK-10)
COC(=O)c1ccc([N+](=O)[O-])c(O)c1	> 100 µM (inactive)	> 100 µM (inactive)	> 100 µM (inactive)	> 100 µM (inactive)	> 100 µM (inactive)	> 100 µM (inactive)	> 100 µM (inactive)	> 100 µM (inactive)	> 100 µM	> 100 µM (inactive)	> 100 µM (inactive)	> 100 µM (inactive)	> 100 µM (inactive)	> 100 µM (inactive)	> 100 µM (inactive)	> 100 µM (inactive)	> 100 µM (inactive)	> 100 µM (inactive)	> 100 µM (inactive)	> 100 µM (inactive)
CCC(=O)NC(NNS(=O)(=O)c1ccc(C)cc1)(C(F)(F)F)C(F)(F)F	> 100 µM (inactive)	20.3 µM (inactive)	> 100 µM (inactive)	59.4 µM (inactive)	> 100 µM (inactive)	34.2 µM (inactive)	64.3 µM (inactive)	96.8 µM (inactive)	32.1 µM	64.3 µM (inactive)	> 100 µM (inactive)	37.6 µM (inactive)	30.7 µM (inactive)	> 100 µM (inactive)	54.1 µM (inactive)	48.9 µM (inactive)	> 10 µM (inactive)	> 100 µM (inactive)	> 100 µM (inactive)	54.1 µM (inactive)
C=C1C(=O)O[C@H]2[C@H]1CC(=O)/C(C)=C/CC[C@@]1(C)O[C@@H]21	6.5 µM (inactive)	0.603 µM (active)	2.15 µM (inactive)	1.25 µM (inactive)	0.582 µM (active)	0.879 µM (active)	12.9 µM (inactive)	1.12 µM (active)	0.515 µM	0.719 µM (active)	0.354 µM (active)	0.37 µM (active)	0.256 µM (active)	3.2 µM (inactive)	2.49 µM (inactive)	1.67 µM (inactive)	0.224 µM (active)	0.255 µM (active)	16.2 µM (inactive)	1.24 µM (inactive)
CN(C)CCOc1ccc2c(c1)C/C(=C/c1ncc([N+](=O)[O-])n1C)C2=O	3.13 µM (inactive)	17.6 µM (inactive)	3.51 µM (inactive)	1.94 µM (inactive)	1.82 µM (inactive)	1.68 µM (inactive)	4.8 µM (inactive)	6.03 µM (inactive)	0.377 µM	1.27 µM (inactive)	2.65 µM (inactive)	2.29 µM (inactive)	0.918 µM (active)	3.39 µM (inactive)	2.61 µM (inactive)	1 µM (active)	2.11 µM (inactive)	1.56 µM (inactive)	3.1 µM (inactive)	3.52 µM (inactive)
COc1c(-c2ccc3c(c2)OCO3)oc2cc3c(c(OC)c2c1=O)OCO3 [MELITERNATIN]	30.5 µM (inactive)	38.1 µM (inactive)	29.8 µM (inactive)	24.8 µM (inactive)	48.2 µM (inactive)	23 µM (inactive)	18.3 µM (inactive)	16.2 µM (inactive)	30.8 µM	16.2 µM (inactive)	11.6 µM (inactive)	26.2 µM (inactive)	21.5 µM (inactive)	18.4 µM (inactive)	25.5 µM (inactive)	22.8 µM (inactive)	22.4 µM (inactive)	23.1 µM (inactive)	22.6 µM (inactive)	25.5 µM (inactive)
CN1C(=O)C23CCCCC2CC1(c1ccccc1)S3 (stereo not given)	> 100 µM (inactive)	> 100 µM (inactive)	> 100 µM (inactive)	> 100 µM (inactive)	> 100 µM (inactive)	63 µM (inactive)	> 100 µM (inactive)	42.6 µM (inactive)	80 µM	60.3 µM (inactive)	79.8 µM (inactive)	> 100 µM (inactive)	76.2 µM (inactive)	> 100 µM (inactive)	> 100 µM (inactive)	66.8 µM (inactive)	50.9 µM (inactive)	71.9 µM (inactive)	65.3 µM (inactive)	41.2 µM (inactive)
